Measured values as given in patent US11613544B2, “Substituted imidazo[1,5-a]pyrazines for modulation of IRE1” (THE REGENTS OF THE UNIVERSITY OF CALIFORNIA, priority 2012, dated 2023).
“Also recorded” adds a separate entry of the source.

Assays:
Src = Src (Homo sapiens, UniProt P12931); assay: Kinase panel counter-screen; type: biochemical; conditions: tested against 12 kinases of the panel
Abl = Abl (Homo sapiens, UniProt P00519); assay: Kinase panel counter-screen; type: biochemical; conditions: tested against 12 kinases of the panel
Chain of Abl (P00519 whole entry, species assumed): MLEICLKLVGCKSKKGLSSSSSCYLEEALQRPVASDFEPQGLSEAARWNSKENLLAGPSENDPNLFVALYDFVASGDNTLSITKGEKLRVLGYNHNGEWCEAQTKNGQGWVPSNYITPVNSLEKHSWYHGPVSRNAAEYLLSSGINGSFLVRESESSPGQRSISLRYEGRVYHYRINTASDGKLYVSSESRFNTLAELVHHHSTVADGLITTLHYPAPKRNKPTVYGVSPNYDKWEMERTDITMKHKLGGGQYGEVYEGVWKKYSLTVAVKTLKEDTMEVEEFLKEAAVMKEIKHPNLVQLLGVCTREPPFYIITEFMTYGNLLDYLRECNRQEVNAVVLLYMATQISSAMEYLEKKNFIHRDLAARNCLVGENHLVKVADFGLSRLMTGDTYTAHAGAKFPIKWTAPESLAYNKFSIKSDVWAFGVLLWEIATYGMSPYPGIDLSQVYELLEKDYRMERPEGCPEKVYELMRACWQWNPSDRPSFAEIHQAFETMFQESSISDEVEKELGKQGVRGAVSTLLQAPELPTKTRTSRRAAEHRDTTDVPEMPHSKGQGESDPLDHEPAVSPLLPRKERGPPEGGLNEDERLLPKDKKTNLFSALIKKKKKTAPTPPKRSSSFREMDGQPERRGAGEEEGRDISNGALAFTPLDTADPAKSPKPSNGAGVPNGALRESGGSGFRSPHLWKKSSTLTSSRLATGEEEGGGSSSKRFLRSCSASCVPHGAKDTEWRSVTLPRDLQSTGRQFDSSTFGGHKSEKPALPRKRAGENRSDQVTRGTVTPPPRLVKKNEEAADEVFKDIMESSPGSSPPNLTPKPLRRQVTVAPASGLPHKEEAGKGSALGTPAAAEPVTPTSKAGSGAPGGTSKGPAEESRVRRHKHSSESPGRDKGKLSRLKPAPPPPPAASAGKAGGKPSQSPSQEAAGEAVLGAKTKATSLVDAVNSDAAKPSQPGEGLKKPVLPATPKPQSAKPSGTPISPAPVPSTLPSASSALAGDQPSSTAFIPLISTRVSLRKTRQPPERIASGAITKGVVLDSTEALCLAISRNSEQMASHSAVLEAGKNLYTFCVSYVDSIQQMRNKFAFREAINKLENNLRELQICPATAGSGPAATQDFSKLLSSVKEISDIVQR

INS-1 cells = assay: Terminal UPR endpoints and apoptosis in cells under ER stress; type: cell-based, rat
From the text: Using rat insulinoma (INS-1) cells that have a well-developed ER and secrete insulin, the duration and magnitude of ER stress that triggers apoptosis were quantified. Two variables-concentration of ER stress inducer (e.g. Thapsigargin-Tg) and time of exposure to the agent—are directly linked to the percentage of cells entering apoptosis (FIG. 28, A and B). Such regimes can be defined for other ER stress inducers such as the glycosylation inhibitor, tunicamycin (Tm) (FIG. 28,C). Increasing ER stress causes progressive increases in endogenous IRE1α phosphorylation, increases in XBP1 mRNA splicing (FIG. 28, E), depletion through endonucleolytic decay of the ER-localized mRNA, Ins1, which encodes proinsulin (FIG. 28, F), and induction of the pro-apoptotic transcription factor, CHOP (FIG. 28, G).
KIRAs break high-order oligomerization of IRE1α kinase domains, attenuate RNAse activity, and reduce entry of cells into the Terminal UPR.
A model of KIRA6-mediated cytoprotection is shown (FIG. 30, J); it posits that the type II kinase inhibitor, KIRA6, reduces kinase/RNAse homo-oligomerization on the cytosolic face of IRE1α, which consequently reduces RNase hyperactivity under ER stress, preventing pro-apoptotic ER-localized mRNA decay and granting cells extended reprieve from programmed cell death.

[1] = tested on: pancreatic islets from C57BL/6 mice; assay: Pancreatic islets treated with ER stress inducer (Tm); type: cell-based, mouse
Description: FIG. 30. KIRA6 inhibits IRE1α autophosphorylation, breaks oligomers, reduces RNase activity, and protects cells from entry into apoptosis. (A) Structure of KIRA6. (B) RNase activities of IRE1α* under varying [KIRA6]; half-maximum effective concentration (EC50) values were determined by fitting normalized fluorescence intensities (mean±s.d., n=3). (C) Inhibition of IRE1α* kinase activity in vitro by KIRA6; IC50 values were determined by fitting percent phosphorylation. […] (E) Immunoblots of IRE1α* (WT) incubated with DMSO or KIRA6 (200 μM) followed by treatment with the crosslinker DSS (250 μM); quantification is on the right. (F) Agarose gel of XBP1 cDNA amplicons from INS-1 cells pre-treated with indicated concentrations of KIRA6 for 1 h, followed by 0.5 μg/ml Tm for 8 h. […] (H) KIRAs reduce entry of INS1-1 cells into apoptosis. (I) Immunofluorescence of islets from 10 wk old C57BL/6 mice treated with 0.5 μg/mL Tm plus/minus 0.5 μM KIRA6 for 16 hr. Co-stained for DAPI, insulin, and TUNEL; Quantification of TUNEL positive β-cells (white arrows) normalized to DAPI-positive cells is shown. […] (K) Model of how KIRA6 prevents the terminal UPR by inhibiting IRE1α. […]

[2] = tested on: mouse embryonic fibroblasts (MEFs); assay: Cytoprotection in mouse embryonic fibroblasts; type: cell-based
IRE1α* (WT) = target: T1, IRE1α* (WT) (Homo sapiens, UniProt O75460); assay: In vitro cleavage of pre-miR-17 by IRE1α*; type: biochemical
T1 construct: 6-His-tag (N); made in house; host or cells: SF9 insect cells (Bac-to-Bac baculovirus)
T1 sequence (O75460 with tags, fused parts or gaps): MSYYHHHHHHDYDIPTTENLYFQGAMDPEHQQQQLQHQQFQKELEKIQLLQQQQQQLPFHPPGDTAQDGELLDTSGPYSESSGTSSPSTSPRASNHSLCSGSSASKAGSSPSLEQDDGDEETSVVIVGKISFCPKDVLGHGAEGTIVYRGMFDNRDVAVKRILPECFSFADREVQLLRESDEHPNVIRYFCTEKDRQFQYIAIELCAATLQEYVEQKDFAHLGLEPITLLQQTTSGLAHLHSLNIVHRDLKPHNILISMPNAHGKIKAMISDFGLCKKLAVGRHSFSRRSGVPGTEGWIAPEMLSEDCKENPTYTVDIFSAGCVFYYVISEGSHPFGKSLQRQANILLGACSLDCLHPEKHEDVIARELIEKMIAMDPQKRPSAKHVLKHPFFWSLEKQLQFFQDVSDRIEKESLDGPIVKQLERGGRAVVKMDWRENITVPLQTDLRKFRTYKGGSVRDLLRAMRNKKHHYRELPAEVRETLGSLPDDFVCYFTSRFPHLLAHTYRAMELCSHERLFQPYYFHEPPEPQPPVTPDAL
From the text: FIG. 31. […] Sequence legend (FIG. 31B): SEQ ID NOs:11-15 (in order top to bottom); (FIG. 31C): SEQ ID NO:16.
Described herein is the characterization of four select miRs that decay in vivo upon IRE1α hyperactivation. These are miR-17, miR-34a, miR-96, and miR-125b. WT-IRE1α directly cleaved pre-miR-17 in vitro at sites distinct from those cleaved by DICER, as mapped by primer extension. The scission sites of pre-miR-17 are identical to those of XBP1 mRNA—(G/C)—and diverge at the flanking regions. Thus, by reducing levels of pre-miRs, IRE1α antagonizes DICER action to reduce cellular levels of the corresponding mature miRs. Intriguingly, IRE1α* (I642G), which can be activated by 1NM-PP1 to cleave XBP1 mRNA in vitro, can also cleave pre-miR-17 under 1NM-PP1. An RNAse mutant, IRE1α* (N906A), is compromised for cleavage of pre-miR-17 (FIG. 31, A-C). […] As IRE1α homo-oligomerizes in the ER membrane in proportion to the concentration of unfolded proteins in the ER lumen, it progressively trans-autophosphorylates. Furthermore, salt bridges between phospho-amino acid groups and other residues reinforce higher-order homo-oligomerization of kinase/RNAse domains, as was shown using yeast IRE1. Thus, as IRE1α protein clusters into higher-order oligomers, it acquires increasing activity towards its RNA substrates. […]

retinal photoreceptors = assay: Intravitreal injection in rat models of retinal degeneration (tunicamycin; P23H rhodopsin); type: in vivo
Description: Based on known rat vitreous volumes, 2 μl was injected intravitreally into each eye. Tm ([…] final concentration) plus/minus KIRA6 (10 μM final concentration) was injected into SD rats at P21 with an equivalent amount of DMSO as a vehicle control. Retinas were collected at 48 and 72 hrs after injections in Trizol (Invitrogen) for qPCR analysis. Eyes were examined by optical coherence tomography (OCT) 7 days post injection and subsequently collected for morphological analysis. […]
Mice were anaesthetized with 1.5-3% isoflurane, eyes were dilated with 2.5% phenylephrine hydrochloride and 1% tropicamide, and corneas were kept moist with regular application of 2.5% methylcellulose. Eyes were examined using a Micron III retinal imaging system (Phoenix Research Labs). Spectral domain OCT images were acquired with a Micron Image Guided OCT System (Phoenix Research Labs) by averaging 10 to 50 scans.
Outer nuclear layers (ONL) were quantified as previously described (Lewin, A. S. et al., Nature medicine 4, 967-971 (1998)). Briefly, rats were euthanized by CO2 inhalation and their eyes were immediately enucleated and immersed in 2% paraformaldehyde and 2.5% glutaraldehyde in phosphate buffered saline. […] ONL thickness was measured at 54 locations around the retina using Bioquant image analysis (Bioquant; R&M Biometrics).

IRE1α* [3] = target: T2, IRE1α* (Homo sapiens, UniProt O75460); conditions: in vitro
T2 sequence (O75460 with tags, fused parts or gaps): as above

IRE1α* [4] = target: T2, IRE1α*; assay: IRE1α* DSS cross-linking to determine oligomer to monomer ratio; conditions: saturating compound (200 μM), DSS 250 μM
Description: The reaction was quenched by addition of 50 mM Tris-HCl (pH 7.5). The samples were then boiled, resolved on SDS-PAGE, and immunoblotted for IRE1α with an anti-IRE1α antibody, (visualization and quantification with a LI-COR Odyssey scanner).

IRE1α* [5] = target: T2, IRE1α*; assay: IRE1α* autophosphorylation kinase assay ([γ-32P]ATP, autoradiography); conditions: in vitro
Description: Inhibitors (initial concentration=80 μM, 2-fold serial dilutions) were incubated with IRE1α in cleavage buffer (20 mM Hepes at pH 7.5, 0.05% Triton X100, 50 mM KOAC, 1 mM Mg(OAC)2, 1 mM DTT) for 20 min, followed by incubation with 10 μCi [γ-^32P]ATP (3000 Ci/mmol, Perkin Elmer) at RT for 30 min. Samples were then separated by SDS-PAGE, and autoradiographed. The auto-phosphorylation level were quantified by setting the band intensity of IRE1α* without compound treatment as 1 and the background as 0.

Chain of Src (P12931 whole entry, species assumed): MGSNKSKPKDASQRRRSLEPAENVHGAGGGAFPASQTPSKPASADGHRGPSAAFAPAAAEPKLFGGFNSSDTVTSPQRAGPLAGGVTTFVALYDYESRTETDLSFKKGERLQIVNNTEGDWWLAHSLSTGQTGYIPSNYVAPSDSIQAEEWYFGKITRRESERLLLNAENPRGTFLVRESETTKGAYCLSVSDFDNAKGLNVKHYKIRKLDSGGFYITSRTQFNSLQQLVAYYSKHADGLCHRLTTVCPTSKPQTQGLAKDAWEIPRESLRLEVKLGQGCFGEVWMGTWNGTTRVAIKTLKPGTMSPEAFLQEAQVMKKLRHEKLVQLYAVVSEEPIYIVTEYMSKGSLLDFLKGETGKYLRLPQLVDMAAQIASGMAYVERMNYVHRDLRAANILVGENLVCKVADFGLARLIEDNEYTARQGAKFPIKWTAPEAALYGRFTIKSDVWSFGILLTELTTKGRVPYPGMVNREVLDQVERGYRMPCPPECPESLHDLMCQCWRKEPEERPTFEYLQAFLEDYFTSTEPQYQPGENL

- off-target kinase inhibition (Src): off-target inhibition observed
- off-target kinase inhibition (Abl): off-target inhibition observed
Structure (SMILES): CC(C)(C)c1nc(-c2ccc(NC(=O)Nc3cccc(C(F)(F)F)c3)c3ccccc23)c2c(N)nccn12 [KIRA6, 1-(4-(8-amino-3-tert-butylimidazo[1,5-a]pyrazin-1-yl)naphthalen-1-yl)-3-(3-(trifluoromethyl)phenyl)urea]
- ER-localized endonucleolytic decay of Ins1 mRNA (INS-1 cells; ER stress): inhibits ER-localized endonucleolytic decay of Ins1 mRNA at lower doses of the drug than needed to inhibit XBP1 mRNA splicing
- caspase 2 accumulation and cleavage (INS-1 cells; FIG. 31F): reduces caspase 2 accumulation and cleavage
- mature miR-17 levels (INS-1 cells; in vivo (cells), FIG. 31E): rescues mature miR-17 levels
- terminal UPR endpoints / entry into apoptosis (INS-1 cells; pre-treatment before ER stress inducers): all these terminal UPR endpoints are curtailed
- TXNIP protein accumulation ([1]; C57BL/6 islets exposed to ER stress inducers): prevents TXNIP protein accumulation
- cytoprotection of pancreatic islets ([1]; islets treated with Tm): cytoprotective effects
- cytoprotective effects ([2]; Ire1α−/− MEFs): absent
- cytoprotective effects ([2]; WT and Xbp1−/− MEFs): still demonstrable
- cleavage of pre-miR-17 by IRE1α* (IRE1α* (WT)): dose-dependently inhibits IRE1α* (WT) cleavage of pre-miR-17; also recorded: prevents cleavage of pre-miR-17 by IRE1α* in vitro
- outer nuclear layer (ONL) thickness vs DMSO (retinal photoreceptors; P23H-1 rats at P30, intravitreal 10 μM): higher thickness
- photoreceptor loss / viability and function (retinal photoreceptors; intravitreal, rat models of retinal degeneration caused by ER stress): protects viability and preserves function of retinal photoreceptors; also recorded: prevents photoreceptor loss
- modulation of IRE1α* RNase activity (XBP1 RNA cleavage) (IRE1α* [3]): inhibits IRE1α* RNase and kinase activities with similar IC50s; also recorded: dose-dependently reduces kinase autophosphorylation and XBP1 splicing activity
- endogenous IRE1α-mediated XBP1 mRNA splicing (endogenous IRE1α; INS-1, provoked by Tm): inhibits endogenous IRE1α-mediated XBP1 mRNA splicing
- endogenous IRE1α auto-phosphorylation (endogenous IRE1α; in vivo (cells), FIG. 30D): inhibits endogenous IRE1α auto-phosphorylation in a dose-dependent manner
- IRE1α* oligomer/monomer ratio (oligomerization state) (IRE1α* [4]): stabilizes the monomeric state; also recorded: reduces concentration-dependent oligomerization
- inhibition of IRE1α* autophosphorylation (IRE1α* [5]): dose-dependently reduces kinase autophosphorylation
